Data on one compound can be found in patent US20250034116A1, “1,4-DIHETEROCYCLIC SUBSTITUTED AROMATIC RING OR AROMATIC HETEROCYCLIC COMPOUND AND USE THEREOF” (BeBetter Med Inc., priority 2022, published 2025).

The subject of assay [1] is diet-induced obesity (DIO) mouse model. In words: Experiment 3: compound 2, weight loss and blood glucose lowering in DIO mouse model. Type of assay: in vivo, Male C57BL/6J mice. The source says:
Experiment 3 was to study the effects of compound 2 on weight loss and blood glucose lowering in a diet-induced obesity (DIO) mouse model. Male C57BL/6J mice were purchased from Zhuhai BST Biotechnology Co., Ltd. and housed in a barrier system animal facility. Animals were randomly divided into 3 groups: normal control group, DIO model control group, and DIO model compound 2 treatment group, with 6-8 animals per group. The model control group and treatment group were first fed with high-fat diet (HFD) for 9 weeks (day 63), and then the treatment group was orally administered with compound 2 at a dose of 30 mg/kg once daily for 8 consecutive weeks, while continuing to receive HFD. Animal weights were measured weekly, and on the last day of treatment, they were fasted overnight but allowed access to water before an oral glucose tolerance test (OGTT).

Assay [2] deals with recombinant CYP4F2 (rCYP4F2) (Homo sapiens (Human), UniProt P78329). In words: Inhibition of 20-HETE production by recombinant CYP4F2. Type of assay: biochemical. In short, it runs like this: (§1)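 LC-MS/MS read-out of 20-HETE formation, expressed as activity relative to no-inhibitor control and fitted to a Hill equation for IC50; percent inhibition also given at 1000, 500 or 100 nM. Enzyme sources: recombinant CYP4F2, recombinant CYP4A11, or human or mouse liver microsomes. Each is combined with compound and substrate (400 μM solution) and warmed 10 min at 37 °C, then incubated 25 min at 37 °C after adding NADPH (6 mM solution).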
recombinant CYP4F2 (rCYP4F2), sequence (P78329 5-520): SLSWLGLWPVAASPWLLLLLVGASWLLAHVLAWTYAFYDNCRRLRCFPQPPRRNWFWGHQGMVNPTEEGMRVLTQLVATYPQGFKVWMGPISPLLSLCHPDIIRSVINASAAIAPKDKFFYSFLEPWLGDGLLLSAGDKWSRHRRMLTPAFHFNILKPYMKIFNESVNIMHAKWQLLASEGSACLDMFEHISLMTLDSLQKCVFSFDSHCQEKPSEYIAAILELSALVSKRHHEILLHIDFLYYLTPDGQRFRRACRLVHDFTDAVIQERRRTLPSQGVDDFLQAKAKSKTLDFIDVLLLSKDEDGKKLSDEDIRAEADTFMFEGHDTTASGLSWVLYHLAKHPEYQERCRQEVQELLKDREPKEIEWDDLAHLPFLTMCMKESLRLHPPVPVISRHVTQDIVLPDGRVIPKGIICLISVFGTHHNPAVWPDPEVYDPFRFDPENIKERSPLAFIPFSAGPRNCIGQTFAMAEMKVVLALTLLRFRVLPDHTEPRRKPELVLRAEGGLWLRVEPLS

Assay [3] concerns the target recombinant CYP4A11 (rCYP4A11) (Homo sapiens (Human), UniProt Q02928). Description: Inhibition of 20-HETE production by recombinant CYP4A11. Type of assay: biochemical. In outline:
as §1

Setting [4] is: 30 mg/kg orally once daily for 8 weeks, DIO mice.

recombinant CYP4A11 (rCYP4A11), sequence (Q02928 5-519): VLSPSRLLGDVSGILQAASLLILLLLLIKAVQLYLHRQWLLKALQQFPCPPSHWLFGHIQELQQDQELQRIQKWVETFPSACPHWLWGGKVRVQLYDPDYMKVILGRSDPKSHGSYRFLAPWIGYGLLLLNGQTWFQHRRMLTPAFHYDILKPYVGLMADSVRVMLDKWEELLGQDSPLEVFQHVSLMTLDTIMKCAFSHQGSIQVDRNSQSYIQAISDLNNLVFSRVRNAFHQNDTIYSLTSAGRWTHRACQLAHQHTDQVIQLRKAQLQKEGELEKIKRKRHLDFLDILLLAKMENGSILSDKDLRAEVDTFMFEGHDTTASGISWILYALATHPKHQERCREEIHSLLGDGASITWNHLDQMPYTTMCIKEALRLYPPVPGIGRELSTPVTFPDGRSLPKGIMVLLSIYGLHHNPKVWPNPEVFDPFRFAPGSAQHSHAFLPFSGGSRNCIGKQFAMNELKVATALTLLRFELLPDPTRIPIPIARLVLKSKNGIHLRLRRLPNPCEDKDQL

Consider `O=C1CCCN1CC1CCN(c2ccc(-c3cn[nH]c3)cc2F)CC1` [Compound 2, 1-((1-(2-fluoro-4-(1H-pyrazol-4-yl)phenyl)piperidin-4-yl)methyl)pyrrolidin-2-one], for which, in assay [1] (setting [4]), the fasting blood glucose result is recorded as “inhibit the increase in fasting blood glucose” and the “glucose metabolism (OGTT)” value is recorded as “enhance their glucose metabolism”. Moreover, the “food intake compared to the DIO model control group” value in assay [1] (30 mg/kg orally once daily, after 2 weeks) was “no difference”. Moreover, the “difference in weight gain relative to the DIO model control group” value in assay [1] (30 mg/kg orally once daily, after 8 weeks) was 47.1%. Besides, in assay [1] (30 mg/kg orally once daily, after 8 weeks, DIO mice), the “body weight decrease, of pre-administration weight” value was 20.8%. Moreover, in assay [1] (30 mg/kg orally once daily, first 2 weeks of administration), the food intake entry was “decreased”. Moreover, the half-inhibitory concentration (IC50) in assay [2] stood at 15.8 nM. The IC50 in assay [3] was found to be 33.2 nM.

A word on the IC50: it is the concentration that gives 50% inhibition.
